Measurements published in ChEMBL document CHEMBL4007448, “The derivatives of Pulsatilla saponin A, a bioactive compound from Pulsatilla chinensis: Their synthesis, cytotoxicity, haemolytic toxicity and mechanism of action” (Eur J Med Chem, 2017).
Calls of active or inactive are those of the source. The rule behind the calls is not given here.

Tests used:
[1] = tested on: A549; assay: Cytotoxicity against human A549 cells assessed as reduction in cell viability after 48 hrs by MTT assay; type: functional, cell-based; conditions: A549, 48 h
[2] = tested on: SMMC-7721; assay: Cytotoxicity against human SMMC7721 cells assessed as reduction in cell viability after 48 hrs by MTT assay; type: functional, cell-based; conditions: SMMC-7721, 48 h
[3] = tested on: BGC-823; assay: Cytotoxicity against human BGC823 cells assessed as reduction in cell viability after 48 hrs by MTT assay; type: functional, cell-based; conditions: BGC-823, 48 h
[4] = Hemolytic activity against New Zealand rabbit erythrocytes after 60 mins; type: ADME, cell-based, Oryctolagus cuniculus, Erythrocyte; conditions: read-out: HD50
[5] = tested on: H22; assay: Antitumor activity against […] xenografted in mouse assessed as tumor growth inhibition at 60 mg/kg/day, ip for 14 days relative to control; type: functional; conditions: 336 h, read-out: TGI
[6] = tested on: Mus musculus; assay: Toxicity in mouse xenografted with […] assessed as hematuria at 60 mg/kg/day, ip for 14 days; type: organism-based; conditions: in vivo, 336 h
[7] = tested on: Mus musculus; assay: Toxicity in mouse xenografted with […] assessed as death at 60 mg/kg/day, ip for 14 days; type: organism-based; conditions: in vivo, 336 h
[8] = tested on: Blood; assay: Drug metabolism in mouse blood assessed as Pulsatilla saponin A formation at 60 mg/kg/day, ip for 14 days; type: ADME, organism-based; conditions: in vivo, 336 h
[9] = tested on: MDA-MB-231; assay: Cytotoxicity against human MDA-MB-231 cells assessed as reduction in cell viability after 48 hrs by MTT assay; type: functional, cell-based; conditions: MDA-MB-231, 48 h
[10] = tested on: KB; assay: Cytotoxicity against human KB cells assessed as reduction in cell viability after 48 hrs by MTT assay; type: functional, cell-based
[11] = Cytotoxicity against human KBVIN cells assessed as reduction in cell viability after 48 hrs by MTT assay; type: functional, cell-based
[12] = tested on: MCF7; assay: Cytotoxicity against human MCF7 cells assessed as reduction in cell viability after 48 hrs by MTT assay; type: functional, cell-based; conditions: MCF7, 48 h
[13] = tested on: MDA-MB-231; assay: Cell cycle arrest in human MDA-MB-231 cells assessed as accumulation at G1 phase at 5.5 uM after 24 hrs by propidium iodide staining based flow cytometry; type: functional

| SMILES | IC50 [1] [µM] | IC50 [2] [µM] | IC50 [3] [µM] | HC50 at 1 h [4] [µM] | also measured |
| --- | --- | --- | --- | --- | --- |
| C[C@H]1O[C@@H](O[C@H]2[C@H](O[C@H]3CC[C@@]4(C)[C@@H](CC[C@]5(C)[C@@H]4CC=C4[C@@H]6CC(C)(C)CC[C@]6(C(=O)OCCCCCCO[N+](=O)[O-])CC[C@]45C)[C@]3(C)CO)OC[C@H](O)[C@@H]2O)[C@H](O)[C@H](O)[C@H]1O | 65.2 | 15.4 | 33.1 | 3.79 |  |
| C[C@H]1O[C@@H](O[C@H]2[C@H](O[C@H]3CC[C@@]4(C)[C@@H](CC[C@]5(C)[C@@H]4CC=C4[C@@H]6CC(C)(C)CC[C@]6(C(=O)NCCCCC(=O)O)CC[C@]45C)[C@]3(C)CO)OC[C@H](O)[C@@H]2O)[C@H](O)[C@H](O)[C@H]1O | > 100 | 26.8 | 67.8 | 228 |  |
| C[C@H]1O[C@@H](O[C@H]2[C@H](O[C@H]3CC[C@@]4(C)[C@@H](CC[C@]5(C)[C@@H]4CC=C4[C@@H]6CC(C)(C)CC[C@]6(C(=O)OCCCCO[N+](=O)[O-])CC[C@]45C)[C@]3(C)CO)OC[C@H](O)[C@@H]2O)[C@H](O)[C@H](O)[C@H]1O | 84.5 | 22.1 | 66.5 | 14.9 |  |
| C[C@@H]1O[C@@H](O[C@H]2[C@H](O[C@H]3CC[C@@]4(C)[C@@H](CC[C@]5(C)[C@@H]4CC=C4[C@@H]6CC(C)(C)CC[C@]6(C(=O)NCC(=O)O)CC[C@]45C)[C@]3(C)CO)OC[C@H](O)[C@@H]2O)[C@H](O)[C@@H](O)[C@H]1O |  |  |  |  | inhibition in vivo at 60 mg/kg/day [5]: 35.6%; Activity [6]: Non-Toxic; Activity [7]: Non-Toxic; Drug metabolism [8]: Metabolite_Notdetected |
| C[C@H]1O[C@@H](O[C@H]2[C@H](O[C@H]3CC[C@@]4(C)[C@@H](CC[C@]5(C)[C@@H]4CC=C4[C@@H]6CC(C)(C)CC[C@]6(C(=O)NCCCC(=O)O)CC[C@]45C)[C@]3(C)CO)OC[C@H](O)[C@@H]2O)[C@H](O)[C@H](O)[C@H]1O | 98.7 | 27.3 | 70.2 | 313 |  |
| C[C@H]1O[C@@H](O[C@H]2[C@H](O[C@H]3CC[C@@]4(C)[C@@H](CC[C@]5(C)[C@@H]4C(=O)C=C4[C@@H]6CC(C)(C)CC[C@]6(C(=O)NCC(=O)O)CC[C@]45C)[C@]3(C)CO)OC[C@H](O)[C@@H]2O)[C@H](O)[C@H](O)[C@H]1O | > 100 | 46.7 | 93.7 | 461 |  |
| CC(=O)OC[C@@]1(C)[C@@H]2CC[C@]3(C)[C@H](CC=C4[C@@H]5CC(C)(C)CC[C@]5(C(=O)O)CC[C@]43C)[C@@]2(C)CC[C@@H]1O[C@@H]1OC[C@H](OC(C)=O)[C@H](OC(C)=O)[C@H]1O[C@@H]1O[C@H](C)[C@H](OC(C)=O)[C@@H](OC(C)=O)[C@H]1OC(C)=O | 72.1 | 69.9 | 74 |  |  |
| C[C@H]1O[C@@H](O[C@H]2[C@H](O[C@H]3CC[C@@]4(C)[C@@H](CC[C@]5(C)[C@@H]4C/C(=N/O)[C@@H]4[C@@H]6CC(C)(C)CC[C@]6(C(=O)O)CC[C@]45C)[C@]3(C)CO)OC[C@H](O)[C@@H]2O)[C@H](O)[C@H](O)[C@H]1O | > 100 | 69.4 | 95.6 | > 500 |  |
| CC(=O)OC[C@@]1(C)[C@@H]2CC[C@]3(C)[C@H](CC(O)[C@]45OC(=O)[C@@]6(CCC(C)(C)C[C@H]64)CC[C@@]35C)[C@@]2(C)CC[C@@H]1O[C@@H]1OC[C@H](OC(C)=O)[C@H](OC(C)=O)[C@H]1O[C@@H]1O[C@H](C)[C@H](OC(C)=O)[C@@H](OC(C)=O)[C@H]1OC(C)=O (stereo partly drawn) | > 100 | 90.2 | > 100 |  |  |
| C[C@H]1O[C@@H](O[C@H]2[C@H](O[C@H]3CC[C@@]4(C)[C@@H](CC[C@]5(C)[C@@H]4CC(=O)[C@@H]4[C@@H]6CC(C)(C)CC[C@]6(C(=O)O)CC[C@]45C)[C@]3(C)CO)OC[C@H](O)[C@@H]2O)[C@H](O)[C@H](O)[C@H]1O | 91 | 53.8 | 77.2 | 190 |  |
| C[C@H]1O[C@@H](O[C@H]2[C@H](O[C@H]3CC[C@@]4(C)[C@@H](CC[C@]5(C)[C@@H]4CC=C4[C@@H]6CC(C)(C)CC[C@]6(C(=O)OCCO[N+](=O)[O-])CC[C@]45C)[C@]3(C)CO)OC[C@H](O)[C@@H]2O)[C@H](O)[C@H](O)[C@H]1O | 80.2 | 17.8 | 33.1 | 16.2 |  |
| COC(=O)CCN1CCN(C(=O)[C@]23CCC(C)(C)C[C@H]2C2=CC[C@@H]4[C@@]5(C)CC[C@H](OC(C)=O)[C@@](C)(COC(C)=O)[C@@H]5CC[C@@]4(C)[C@]2(C)CC3)CC1 | 4.69 |  |  | > 500 | IC50 [9]: 5.54 µM; IC50 [10]: 5.08 µM; IC50 [11]: 5.25 µM; IC50 [12]: 10.7 µM; Activity [13]: Active |
| CC1(C)CC[C@]2(C(=O)N3CCN(CCC(=O)O)CC3)CC[C@]3(C)C(=CC[C@@H]4[C@@]5(C)CC[C@H](O)[C@@](C)(CO)[C@@H]5CC[C@]43C)[C@@H]2C1 | 31.5 |  |  | > 500 | IC50 [9]: 32.9 µM; IC50 [10]: 15 µM; IC50 [11]: > 40 µM; IC50 [12]: > 40 µM |
| C[C@H]1O[C@@H](O[C@H]2[C@H](O[C@H]3CC[C@@]4(C)[C@@H](CC[C@]5(C)[C@@H]4CC(O)[C@]46OC(=O)[C@@]7(CCC(C)(C)C[C@H]74)CC[C@@]56C)[C@]3(C)CO)OC[C@H](O)[C@@H]2O)[C@H](O)[C@H](O)[C@H]1O (stereo partly drawn) | > 100 | 56.6 | 81.9 | 77.7 |  |
| C[C@@H]1O[C@@H](O[C@H]2[C@H](O[C@H]3CC[C@@]4(C)[C@@H](CC[C@]5(C)[C@@H]4CC=C4[C@@H]6CC(C)(C)CC[C@]6(C(=O)O)CC[C@]45C)[C@]3(C)CO)OC[C@H](O)[C@@H]2O)[C@H](O)[C@@H](O)[C@H]1O | 18.6 to 20.9 | 12.2 | 14.6 | 3.86 | IC50 [9]: 17.8 µM; IC50 [10]: 20.7 µM; IC50 [11]: 19.6 µM; IC50 [12]: 22.2 µM |
| CC1(C)CC[C@]2(C(=O)O)CC[C@]3(C)C(=CC[C@@H]4[C@@]5(C)CC[C@H](O)[C@@](C)(CO)[C@@H]5CC[C@]43C)[C@@H]2C1 [HEDERAGENIN] | 10.2 |  |  | > 200 | IC50 [9]: 36.6 µM; IC50 [10]: 14.6 µM; IC50 [11]: 27.9 µM; IC50 [12]: 39.4 µM |
| C[C@H]1O[C@@H](O[C@H]2[C@H](O[C@H]3CC[C@@]4(C)[C@@H](CC[C@]5(C)[C@@H]4CC(=O)[C@@H]4[C@@H]6CC(C)(C)CC[C@]6(C(=O)NCC(=O)O)CC[C@]45C)[C@]3(C)CO)OC[C@H](O)[C@@H]2O)[C@H](O)[C@H](O)[C@H]1O | 95.8 | 44 | 86.1 | 339 |  |
| C[C@H]1O[C@@H](O[C@H]2[C@H](O[C@H]3CC[C@@]4(C)[C@@H](CC[C@]5(C)[C@@H]4CC(=O)[C@]46OC(=O)[C@@]7(CCC(C)(C)C[C@H]74)CC[C@@]56C)[C@]3(C)CO)OC[C@H](O)[C@@H]2O)[C@H](O)[C@H](O)[C@H]1O | > 100 | 70.6 | 80.3 | > 500 |  |
| C[C@H]1O[C@@H](O[C@H]2[C@H](O[C@H]3CC[C@@]4(C)[C@@H](CC[C@]5(C)[C@@H]4CC=C4[C@@H]6CC(C)(C)CC[C@]6(C(=O)NCC(=O)NCC(=O)O)CC[C@]45C)[C@]3(C)CO)OC[C@H](O)[C@@H]2O)[C@H](O)[C@H](O)[C@H]1O | > 100 | 57.8 | 76.3 | > 500 |  |
| C[C@H]1O[C@@H](O[C@H]2[C@H](O[C@H]3CC[C@@]4(C)[C@@H](CC[C@]5(C)[C@@H]4CC=C4[C@@H]6CC(C)(C)CC[C@]6(C(=O)NCCCCCC(=O)O)CC[C@]45C)[C@]3(C)CO)OC[C@H](O)[C@@H]2O)[C@H](O)[C@H](O)[C@H]1O | > 100 | 27.4 | 65.5 | 393 |  |
| C[C@H]1O[C@@H](O[C@H]2[C@H](O[C@H]3CC[C@@]4(C)[C@@H](CC[C@]5(C)[C@@H]4C(=O)C=C4[C@@H]6CC(C)(C)CC[C@]6(C(=O)O)CC[C@]45C)[C@]3(C)CO)OC[C@H](O)[C@@H]2O)[C@H](O)[C@H](O)[C@H]1O | > 100 | 58.8 | 82.6 | > 500 |  |
